# According to a melting point compilation (Tetko et al.; mined from patent text by program, amines drawn as free bases though some values may be those of a salt):
row,melting point,SMILES
1,149 to 150 °C,O=C1CCc2cc(Br)c3c(c21)CCO3
2,174 to 175 °C,COc1cc2ncnc(N3CCc4c(C)cccc43)c2cc1OC
3,122 to 126 °C,N#Cc1ccc(Oc2ccc(Cl)c(Cl)c2)c(C=O)c1
4,86 to 87 °C,CC1(C)CC(O)CC(C)(C)N1OCc1ccccc1
5,166 to 167 °C,CCOC(=O)C1=C(C)NC(c2ccc(OC)cc2)=C(C(=O)OCC)C1c1cccc([N+](=O)[O-])c1 (configuration not stated)
6,143 to 145 °C,N#CC1(c2ccc(Cl)c(Cl)c2)CC(Cl)=C(Cl)N1CCO (configuration not stated)
7,158 to 160 °C,CC1(N2C(=O)c3cccc(NCc4ccco4)c3C2=O)CCC(=O)NC1=O (configuration not stated)
8,270 to 274 °C,O=C(O)c1ccc(NC(=O)[C@H](Cc2ccc(-c3ccccc3)cc2)NCP(=O)(O)O)cc1
9,85 to 87 °C,CC(C)CN(OCc1ccccc1)C(=O)Nc1ccccc1
10,110 °C,O=C(COc1ccc(Cl)cc1Cl)OCNC(=O)Oc1cccc(Cl)c1
11,145 to 148 °C,O=[N+]([O-])c1ccc(-c2cccnc2)cc1
12,103 to 104 °C,O=Cc1cc(Cl)c(F)cc1O
13,181 to 182 °C,CC(C)(NC(=O)c1ccc([N+](=O)[O-])cc1)C(=O)CCl
14,120 to 123 °C,COc1ccc2c(c1)Sc1ccc(SC)cc1C(Cl)C2 (configuration not stated)
15,182 to 184 °C,O=C(O)CNC(=O)c1nnc2ccc(NCCCN3CCC(OC(c4ccccc4)c4ccccc4)CC3)nn12
16,89 to 93 °C,FC(F)(F)c1cc(CO[C@H]2CCCN(Cc3ccccc3)[C@H]2c2ccccc2)cc(C(F)(F)F)c1
17,93 to 95 °C,C=CCSC(=S)c1cc(C(C)(C)C)c(O)c(C(C)(C)C)c1
18,202 to 203 °C,NC(=O)c1ccc(-c2cccc3cc(Cc4cc(F)cc(Cl)c4)sc23)cc1
19,> 200 °C,CCOC(=O)c1nc(NCC(c2ccccc2)c2ccccc2)c2nc[nH]c2n1
20,156 to 158 °C,COc1cccc(NC(=O)/C=C(\C)c2cc3cccc(OCCCC(=O)O)c3o2)c1
21,124 °C,COc1ccc(CC(=O)NCCc2cccc3c2OCO3)cc1OC
22,110 °C,CCC1C(O)C2C3CCC(C(C)CCC(=O)O)C3(C)CCC2C2(C)CCC(O)CC12 (configuration not stated)
23,177 to 178 °C,O=C(CNc1ccc(Cl)cc1)c1cc(O)c(O)c([N+](=O)[O-])c1
24,190 to 192 °C,Nc1ccc(F)c(-c2ccncc2)c1F

row,melting point,SMILES
1,170 to 172 °C,CC1=C(C(=O)CCl)C2(C)CCC3C(CC=C4CC(O)CCC43C)C2C1 (configuration not stated)
2,151 to 153 °C,CC(C)(C)OC(=O)C=C(c1ccc(C#N)cc1)n1ccnc1
3,298 to 299 °C,O=c1ccn2nc(-c3ccncc3)c(-c3ccc(F)cc3)c2[nH]1
4,285 to 286 °C,COc1cc2c(=O)n(CCO)c3c4cc5c(cc4ncc3c2cc1OC)OCO5
5,203 to 204 °C,COc1cc2c(cc1C(F)(F)F)N(C(=O)N(c1cccc(C)c1)c1ncon1)CC2
6,170 to 172 °C,COCCc1nc2cnc3cc(OCc4ccccc4)ccc3c2n1CC(C)(C)O
7,126 to 128 °C,O=C1CCc2cc3ccccc3n2C1
8,84.5 to 86 °C,CC(C)(C)OC(=O)NCCC(=O)NCC(C(=O)OCc1ccccc1)c1ccccc1 (configuration not stated)
9,115 °C,Cc1cc(C)c2nnn(C(=O)N3CCOCC3)c2c1
10,100 to 102 °C,Cc1cccnc1C1CC(C)(C)Oc2ccccc21 (configuration not stated)
11,219 to 221 °C,Cc1nc2c(c(=O)[nH]1)-c1ccc(Cl)cc1C(c1ccccc1)=[N+]([O-])C2
12,147 to 148 °C,CC(C)(C)c1csc(-c2cc3cc(CCc4ccccc4C(=O)O)ccc3o2)n1
13,119 to 121 °C,COc1ccc(N(CCCC(=O)O)C(=O)CCCN(C(=O)c2ccc(Cl)cc2)c2c(C)cccc2C)cc1
14,159 to 160 °C,Clc1nc(-c2ncccn2)nc(Cl)c1-c1cccs1
15,100 °C,CCN(CC)C(=O)Oc1cc(-c2ccccn2)nc2ccccc12
16,137 to 138 °C,Cc1nnc(-c2ccnc(NCc3ccccn3)c2)o1
17,54 to 55 °C,CCCCCC[C@@H](C)Oc1cc2sc(C(=O)OC)c(O)c2cc1[N+](=O)[O-]
18,176 to 177 °C,CC(C)=NOCc1nc2c(N)nc3c(c2n1CC(C)C)CCCC3
19,47 to 48 °C,COC(=O)CN(C)c1cccc(Br)n1
20,148 to 151 °C,CCCCOc1c(\C(C)=C/C=C/C(C)=C/C(=O)O)cc(C(C)(C)C)cc1C(C)(C)C
21,98 to 101 °C,COP(=O)(CCC(C)(C)c1ccc(O)cc1)OC
22,272 to 274 °C,CS(=O)(=O)c1nc(N)c2ncn(C3CCCCC3)c2n1
23,178 to 179 °C,NNC(=O)CCSCCOC1OC(CO)C(O)C(O)C1O (configuration not stated)
24,199 to 201 °C,O=C(CCN1CCN(c2ccccc2)CC1)c1ccc2oc3ccc(C(=O)CCN4CCN(c5ccccc5)CC4)cc3c(=O)c2c1

row,melting point,SMILES
1,200 to 201 °C,Cc1c(C#N)c(-c2ccc(C#N)cc2)c(C)n1Cc1cnc(Cl)c(C(O)C(F)(F)F)c1 (configuration not stated)
2,154 to 155 °C,CC(C)(C)OC(=O)NCCn1cnc2cnc3ccccc3c21
3,108 to 110 °C,COC(=O)NC(CCc1ccccc1)C(=O)O (configuration not stated)
4,85.3 to 87.6 °C,COC(=O)C1=C(SC)N(c2c(C)cc(C)cc2Cl)CCC1
5,208 to 210 °C,COc1nc(NC(=O)Nc2ccccc2OC)nc(N(CCC(=O)O)Cc2ccc(Cl)c(Cl)c2)n1
6,100 to 102 °C,Cc1ccc(S(=O)(=O)OCC2(C)Cc3cc(Cl)cc(OS(=O)(=O)C(F)(F)F)c3O2)cc1 (configuration not stated)
7,173 to 175 °C,COc1cc2c(Nc3ccc(Cl)cc3F)ncnc2cc1OCCN1CCN(C)CC1
8,160 to 163 °C,Cc1cc(C(=O)CCc2cc(-c3ccc(C(F)(F)F)cc3)nn2C(C)C)ccc1OCC(=O)O
9,85 to 93 °C,COC(=O)c1ccc(CSCC(=O)[C@H](Cc2ccccc2)NC(=O)[C@H](CC(C)C)NC(=O)OCc2ccccc2)o1
10,128 °C,Cc1cc(=O)c(-c2ccc(Cl)c(Cl)c2)c(-c2ccc(S(N)(=O)=O)cc2)o1
11,178 to 180 °C,COc1ccc(Cc2cc(C3CCN(C(=O)Nc4ccccc4)CC3)nc(N)n2)cc1
12,152 to 154 °C,NS(=O)(=O)c1ccc(Nc2nc(OCC3CCCCC3)c3[nH]cnc3n2)cc1
13,185 to 187 °C,CC(C)NC(=O)[C@H](C)C[C@H](O)[C@H](CC1CCCCC1)NC(=O)[C@H](Cc1cscn1)NC(=O)OC(C)(C)C
14,163 to 166 °C,CCOC(=O)c1cc(C(=O)Nc2ccccc2OC(C)=O)cc(Cl)c1O
15,40 to 44 °C,COC(=O)C(C(=O)OC)C(=O)C(C)Oc1ccc(Oc2ccc(C(F)(F)F)cc2)cc1 (configuration not stated)
16,122 to 123 °C,COc1ccc(Br)c2c1-c1ccc(NS(C)(=O)=O)cc1C(c1ccccc1)O2 (configuration not stated)
17,185 °C,Cc1cn(C)c2c1N(C(=O)CCN1CCCC1)c1ccccc1NC2=O
18,225 to 228 °C,CCc1ccc2oc(C(=O)Nc3ccc(-c4ccc(S(=O)(=O)NC(C(=O)O)C(C)C)cc4)cc3)c(C)c2c1OC (configuration not stated)
19,218 to 228 °C,NS(=O)(=O)c1ccc2cc(O)c(O)cc2c1
20,176 °C,CS(=O)(=O)c1ccc(-n2nc(CO)cc2-c2ccc(-c3ccco3)cc2)cc1
21,156 to 164 °C,CS(=O)(=O)NNc1ccnc2c(NC(=O)c3c(Cl)cccc3Cl)cccc12
22,220 °C,CCn1c(N)c(-c2nccn2COCC[Si](C)(C)C)c(=O)c2ccc(-c3ccc(CC(=O)O)cc3)nc21
23,123 to 126 °C,CCCCCCCCCC(=O)Nc1c2c(nc3ccccc13)CCCC2
24,172 to 174 °C,Nc1c(-c2ccc(Cl)cc2Cl)nnn1Cc1ccc(O)cc1

row,melting point,SMILES
1,125 °C,C=C(C)CCC(=O)C(C(=O)OCC)C1c2ccccc2C(=O)N1c1ccc2ccc(Cl)nc2n1 (configuration not stated)
2,178 to 179 °C,COc1cc2ncnc(N3CCNCC3)c2cc1OC
3,186 °C,COc1ccccc1Sc1c(Cl)ncnc1NS(=O)(=O)c1ccc(C(C)(C)C)cc1
4,130 to 132 °C,COc1ccc2cc(-c3cc4c(cc3N)OCO4)ccc2c1
5,221 to 222 °C,Cc1ccc(S(=O)(=O)N(C)c2ccccc(N)c2=O)cc1
6,59 to 60 °C,"CCCCCCCCC(=O)OC(C)c1ccc(-c2ccc(OC)cc2)cc1 (single isomer, unassigned; (+))"
7,> 250 °C,Nc1nc(O)c2cc(C=Cc3ccc(C(=O)O)cc3)cnc2n1
8,93 to 94 °C,CCOc1nn(-c2ccc(C(F)(F)F)cn2)cc1CCCOc1ccc(CCC(=O)O)cc1OC(C)C
9,107 °C,O=C(C(=O)c1ccc(F)c(Br)c1)c1ccc(OCCF)cc1
10,149 to 151 °C,CCCOc1ccc2c(c1)C(N(C)S(C)(=O)=O)C(O)C(C)(C)O2 (configuration not stated)
11,179 to 183 °C,COc1ccc2c(c1)c1c(n2Cc2ccccc2)CCCC1C(=O)O (configuration not stated)
12,117 to 119 °C,Cc1ccc(N)c(Cl)c1C#N
13,123 to 125 °C,CCCN1CC(=O)C(C(=O)OCC)C1=O (configuration not stated)
14,157 to 158 °C,CNC(=O)n1nc(Oc2ccc([N+](=O)[O-])cc2C(F)(F)F)c(Cl)c1C
15,154 to 160 °C,CON=Cc1ccc2c(c1)ncn2-c1cccc(-c2nccs2)c1
16,164 to 171 °C,S=C(Nc1ccc(Nc2ccccc2)cc1)Nc1ccc(Nc2ccccc2)cc1
17,197 °C,CN(C)S(=O)(=O)c1cccc(NC(=O)c2cnn3c(C(F)F)cc(-c4ccc(C(F)(F)F)cc4)nc23)c1
18,258 to 260 °C,CC(C)(CN)c1ccc(C(=O)Nc2cn3cc(-n4ccnc4)ccc3n2)cc1
19,176 to 177 °C,COC(=O)C(=NO)c1nc2cc(Cl)ccc2oc1=O
20,196 to 197 °C,O=C(CCl)Nc1ccc(OCc2nc3ccccc3s2)cc1
21,218 to 220 °C,CC(=O)OC1CCC2(C)C(=CCC3C2CCC2(C)C(n4ccnc4)=C(C=O)CC32)C1 (configuration not stated)

row,SMILES,melting point
1,O=C(NCc1ccc(Cl)cc1)c1cn(Cc2cccnc2)c2sc(CN3CCOCC3)cc2c1=O,214 to 215 °C
2,Cc1ccc(Cl)cc1-n1c(CF)nc2ccc([N+](=O)[O-])cc2c1=O,191 to 192 °C
3,CN(Cc1ccc2c(Br)c(O)ccc2c1)C(=O)c1cn(Cc2ccccc2)c2ccccc12,181 to 182 °C
4,Cc1cc2c(cc1O)C(C)(C)CC1(CC(C)(C)c3cc(OCCCn4ccnc4)c(C)cc3O1)O2 (configuration not stated),209 to 211 °C
